Measured values as given in publication PMC8989888, “Development of optimized drug-like small molecule inhibitors of the SARS-CoV-2 3CL protease for treatment of COVID-19” (Nature Communications, 2022).
Values joined by “and” are separate entries in the source; they are usually repeats but may differ in a detail not shown here. Equal entries are not always repeated. Where two headings read alike, the source gives them in different places.

What was measured:
SARS-CoV-2 3CL protease [1] = target: T1, SARS-CoV-2 3CL protease (Severe acute respiratory syndrome coronavirus 2, UniProt P0DTD1); experiment: biochemical
SARS-CoV-2 3CL protease [2] = target: T1, SARS-CoV-2 3CL protease; format: biochemical; set-up: Avg: unit not given here; conditions: for Inhibition at 10 µM: 10 µM compound; for Inhibition at 100 µM: 100 µM compound; for IC50 / LogIC50: Figure S1 and S2
[3] = Conc 10 µM, average response of dose-response curve
[4] = Conc 15 µM, average response of dose-response curve
[5] = Conc 20 µM, average response of dose-response curve
[6] = Conc 50 µM, average response of dose-response curve
[7] = Conc 100 µM, average response of dose-response curve
[8] = Conc 200 µM, average response of dose-response curve
[9] = dose-response retest of fragment hits
[10] = dose-response curve of fragment hit
[11] = Conc 10 µM, mean response (inhibition) of dose-response curve
[12] = Conc 15 µM, mean response (inhibition) of dose-response curve
[13] = Conc 20 µM, mean response (inhibition) of dose-response curve
[14] = Conc 50 µM, mean response (inhibition) of dose-response curve
[15] = Conc 100 µM, mean response (inhibition) of dose-response curve
[16] = Conc 200 µM, mean response (inhibition) of dose-response curve

SMILES	Inhibition at 10 µM (SARS-CoV-2 3CL protease [2]) [%]	Inhibition at 100 µM (SARS-CoV-2 3CL protease [2]) [%]	Avg (SARS-CoV-2 3CL protease [2]; [3])	Avg (SARS-CoV-2 3CL protease [2]; [4])	Avg (SARS-CoV-2 3CL protease [2]; [5])	Avg (SARS-CoV-2 3CL protease [2]; [6])	Avg (SARS-CoV-2 3CL protease [2]; [7])	Avg (SARS-CoV-2 3CL protease [2]; [8])	IC50 (SARS-CoV-2 3CL protease [2]; [9]) [µM]	LogIC50 (SARS-CoV-2 3CL protease [2]; log of IC50 in µM)	IC50 (SARS-CoV-2 3CL protease [2]; [10]) [µM]	LogIC50 (SARS-CoV-2 3CL protease [2]; log10 of IC50 in µM)	Avg (SARS-CoV-2 3CL protease [2]; [11])	Avg (SARS-CoV-2 3CL protease [2]; [12])	Avg (SARS-CoV-2 3CL protease [2]; [13])	Avg (SARS-CoV-2 3CL protease [2]; [14])	Avg (SARS-CoV-2 3CL protease [2]; [15])	Avg (SARS-CoV-2 3CL protease [2]; [16])	other results
CC(C)(C)OC(=O)NC(CO)CC1CCNC1=O (centres unmarked) [AZVIII-30]	–	–	–	–	–	–	–	–	–	–	–	–	–	–	–	–	–	–	Normalized SARS-CoV-2 3CL protease activity (SARS-CoV-2 3CL protease [1]; 0.2 µM protease with 50 µM tested compound, replicates): 0.9915 and 0.9651 and 0.9186; IC50 (SARS-CoV-2 3CL protease [1]; 200 nM protease, read-out: IC50): > 50 µM; activity against SARS-CoV-2 3CL protease (in words) (SARS-CoV-2 3CL protease [1]; compound 4 analogs): did not produce active compounds
O=C(CCl)N1CCN(c2ccccc2[N+](=O)[O-])CC1 [Z1562119284]	20	90	20	20	26	56.4	90	97.6	44.6	1.6496	–	–	–	–	–	–	–	–	–
O=C(CCl)N1CCOC(c2ccc(F)cc2)C1 (centres unmarked) [Z1562122812]	31	100	31.1	36.9	59.9	101.2	96.2	101.8	18.4	1.2639	–	–	–	–	–	–	–	–	–
N#C/C=C/S(=O)(=O)c1ccc(Cl)cc1 [Z1649581806]	18	95	17.8	30.7	66.2	85.5	95.1	100.5	17.8	1.251	–	–	–	–	–	–	–	–	–
O=C(CCl)c1ccc2c(c1)CCN(C(=O)C(F)(F)F)C2 [Z1723943157]	42	81	42.1	47.7	60.7	76.3	81	92.3	14.4	1.159	–	–	–	–	–	–	–	–	–
Nc1cccnc1S [Z1741977862]	21	100	21.4	52.3	66.1	102.9	106.8	99.2	15.2	1.183	–	–	–	–	–	–	–	–	–
Nc1nccnc1S [Z1868316802]	21	92	20.5	24.1	32.6	92.3	91.8	82.9	23.3	1.368	–	–	–	–	–	–	–	–	–
OCCc1cnc(S)nc1 [Z2064274637]	5	100	5.2	28.9	36.1	91.7	103	105.7	23.4	1.369	–	–	–	–	–	–	–	–	–
CC1(C)C(=O)Nc2ccc(C(=O)CCl)cc21 [Z2160878465]	7	97	6.9	29.9	41.3	60	96.5	106.7	28.6	1.456	–	–	–	–	–	–	–	–	–
O=C(CCl)c1csc(N2CCCCC2)n1 [Z2469673977]	51	100	51.4	56.3	64	57.3	102	104.1	–	–	–	–	–	–	–	–	–	–	–
CN1C(=O)CCc2cc(C(=O)CCl)ccc21 [Z2491497303]	6	87	5.9	25.5	13.7	51.4	86.8	97.7	48.8	1.688	–	–	–	–	–	–	–	–	–
CN1Cc2cc(C(=O)CCl)ccc2NC1=O [Z2491497315]	16	95	15.7	35.9	38.8	78.6	95.1	102.1	24.2	1.383	24.2	1.383	–	–	–	–	–	–	–
O=C(CCl)N1CCN(Cc2ccsc2)CC1 [Z2650385668]	15	86	–	–	–	–	–	–	–	–	35.7	1.553	14.7	16.7	31.9	63.6	86.4	96.9	–
Cc1ccccc1CN1CCCN(C(=O)CCl)CC1 [Z2651952322]	18	91	–	–	–	–	–	–	–	–	33.1	1.52	17.5	31.4	33.6	62.8	90.5	99.5	–
N#Cc1ccnc(S)c1 [Z2687203952]	12	100	–	–	–	–	–	–	–	–	17.4	1.241	11.5	33.9	67.8	111.2	107.8	106.7	–
Cc1cnc(=S)[nH]c1 [Z2768165643]	41	100	–	–	–	–	–	–	–	–	13	1.114	41.2	59.8	69.1	106.7	109.4	108.2	–
O=C(CCl)c1ccc(F)c(C(=O)CCl)c1 [Z2768504793]	3	63	–	–	–	–	–	–	–	–	50.2	1.7	3.4	11.1	34.1	48.5	62.9	79.1	–
C=CS(=O)(=O)c1nc2ccccc2s1 [Z3228044564]	73	100	–	–	–	–	–	–	–	–	–	–	73.2	84.2	91.1	103.1	104	112.9	–
O=C(CCl)COc1ccc(Cl)cc1 [Z3236282166]	48	100	–	–	–	–	–	–	–	–	11.5	1.059	47.7	63.9	86.8	98.6	103.3	106	–
CN(C)C(=O)c1csc(C(=O)CCl)c1 [Z3244705145]	24	89	–	–	–	–	–	–	–	–	35.9	1.555	23.6	22.7	40.5	58.7	89	99.3	–
